The values below come from PubChem BioAssay (NCI).

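Dose response: 5 concentrations. Exposure: 48 h. Format: 96-well plates. Endpoint: linear interpolation; highest concentration if not reached. GI50: concentration for 50% inhibition of growth. TGI denotes the concentration required for complete inhibition of growth.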

Among the test systems are A549 NSCLC; ACHN renal; EKVX NSCLC; SF-295 CNS; SK-MEL-28 melanoma; SNB-19 CNS; SR leukemia; SW-620 colon; TK-10 renal; HOP-92 NSCLC.
Holding throughout (test): growth of human tumour cells (NCI), 48 h

Regarding `CC(C)=CCC/C(C)=C/C=C/C(C)=C/C1C[C@@]2(C(O)O1)[C@H](CCCO)/C(=C(/C)C=O)CC[C@]2(C)O` (stereo not given in full), the TGI in the assay on A549 NSCLC was found to be 25 µM; with ACHN renal, 25.2 µM; in the assay with EKVX NSCLC it was 25.1 µM; with SF-295 CNS, 27.7 µM; in the assay with SK-MEL-28 melanoma, 32.3 µM; in the assay with SNB-19 CNS, 35.4 µM. The TGI worked out at 37.2 µM with SR leukemia, 27.8 µM in the assay with SW-620 colon and 62.8 µM in the assay with TK-10 renal.
For `CCOC(=O)c1csc(NC(=O)C(C)N2CCOCC2)n1` (stereo not given), the TGI in the assay on A549 NSCLC, in the assay on ACHN renal, in the assay with EKVX NSCLC, in the assay with HOP-92 NSCLC, in the assay on SF-295 CNS and in the assay on SK-MEL-28 melanoma was above 100 µM throughout. The TGI with SNB-19 CNS, in the assay with SR leukemia, with SW-620 colon and in the assay with TK-10 renal was above 100 µM in each case.
Consider `C/C(=N\NC(=S)N1CCOCC1)c1nc2ncccc2[nH]1`, for which the TGI in the assay with A549 NSCLC is above 100 µM; in the assay on ACHN renal it was above 100 µM; in the assay on EKVX NSCLC it was above 100 µM; with HOP-92 NSCLC, 68 µM; with SF-295 CNS, 69.6 µM; in the assay on SK-MEL-28 melanoma, above 100 µM. Besides, the TGI was 84.6 µM with SNB-19 CNS, above 100 µM in the assay with SR leukemia, above 100 µM in the assay with SW-620 colon and above 100 µM with TK-10 renal.
For the compound `Cc1cc(Nc2ccc(Cl)cc2)nc(NCCCNc2ccnc3cc(Cl)ccc23)n1`, the GI50 is 1.63 µM in the assay with ACHN renal; 1.01 µM with HOP-92 NSCLC; 1.64 µM in the assay with SF-295 CNS; 1.81 µM with SK-MEL-28 melanoma; 1.73 µM with TK-10 renal. For the same compound, the TGI with ACHN renal stood at 3.06 µM; in the assay on HOP-92 NSCLC, 2.53 µM; in the assay on SF-295 CNS, 3.04 µM; with SK-MEL-28 melanoma, 3.31 µM; in the assay with TK-10 renal, 3.19 µM.
On to `COC(=O)C(NC(=O)c1ccccc1)C(c1c(O)cc(O)cc1O)P(=O)(OC)OC` (stereo not given), for which the TGI with A549 NSCLC, with ACHN renal, with EKVX NSCLC, with HOP-92 NSCLC, in the assay on SF-295 CNS and with SK-MEL-28 melanoma was above 100 µM in each case. The TGI with SNB-19 CNS, in the assay with SR leukemia, in the assay on SW-620 colon and with TK-10 renal was above 100 µM in each case.
Turning to `NC(Cc1ccccc1CP(=O)(O)O)C(=O)O` (stereo not given), the TGI in the assay with A549 NSCLC, in the assay on ACHN renal, with EKVX NSCLC, in the assay on HOP-92 NSCLC, in the assay on SF-295 CNS and with SK-MEL-28 melanoma was above 100 µM throughout. Besides, the TGI with SNB-19 CNS, with SR leukemia, with SW-620 colon and in the assay on TK-10 renal was above 100 µM in each case.
Take `CCN(CC)CCNc1ccc([N+](=O)[O-])c2sc3cc(Cl)ccc3c(=O)c12`: the GI50 was 2.89 µM with A549 NSCLC; 10.7 µM in the assay on EKVX NSCLC; 2.15 µM in the assay on HOP-92 NSCLC; 6.27 µM in the assay on SF-295 CNS; 2.77 µM in the assay with SNB-19 CNS; 4.7 µM in the assay on SR leukemia. For the same compound, the GI50 in the assay on SW-620 colon is 2.33 µM; in the assay on TK-10 renal, 2.97 µM. In addition, the TGI was above 100 µM in the assay on A549 NSCLC; above 100 µM in the assay on EKVX NSCLC; 30.3 µM in the assay on HOP-92 NSCLC; above 100 µM in the assay on SF-295 CNS; above 100 µM with SNB-19 CNS; above 100 µM with SR leukemia. Besides, the TGI in the assay on SW-620 colon was 27.8 µM; in the assay with TK-10 renal it was above 100 µM.
